Experimental data reported in publication doi:10.1101/2023.07.11.548539v1, “A side-by-side comparison of peptide-delivered antisense antibiotics employing different nucleotide mimics” (bioRxiv, 2023).
Oligonucleotides are written 5' to 3', each unit as a sugar letter and its base; * is a phosphorothioate linkage, no mark a phosphodiester; rarer units and linkages stand in square brackets, end groups in braces. Plain capitals give the bases only. d = 2'-deoxy (DNA)

How the values were obtained:
[1] = test system: acpP mRNA; experiment: RNA-seq, target mRNA depletion; type: cell-based, Salmonella enterica serovar Typhimurium strain SL1344; design: key to acpP depletion (RNA-seq): -: Effect strength is represented by additional (+) signs.; Effect strength is represented by additional (+) signs.; ++: Effect strength is represented by additional (+) signs.; +++: Effect strength is represented by additional (+) signs; conditions: for acpP depletion (RNA-seq): summary grade, ASO conjugated to the carrier peptide; for acpP mRNA depletion (in words): 5 µM KFF-ASO conjugate, 15 min, ~10^6 cfu/ml
Experimental: RNA isolation was performed using previously published protocols ([30],[31]). Bacterial overnight cultures were diluted 1:100 in fresh MHB and grown to OD600 0.5. The cultures were diluted to approximately 10^6 cfu/ml in non-cation-adjusted MHB. Afterwards, an aliquot of the bacterial solution was transferred into 5 ml low-binding tubes (LABsolute) containing the ASOs solution (adjusted such that the final concentration was 5 μM for all tested compounds). As a negative control, cells were treated with the respective volume of sterile nuclease-free water, which was used as solvent for the ASOs. After incubating the samples for 15 min at 37 °C, RNAprotect Bacteria (Qiagen) was added according to the manufacturer’s instructions. Following a 10-min incubation, cells were pelleted at 4 °C and 21,100 × g for 20 min. The supernatant was discarded and pellets were either directly used or stored at –20°C (<1 day) for subsequent bacterial RNA isolation.
Total RNA was purified from bacterial pellets using the miRNeasy Mini kit (Qiagen) according to protocol #3 described in ([30]). Briefly, cells were resuspended in 0.5 mg/ml lysozyme (Roth) in TE buffer (pH 8.0) and incubated for 5 min. Afterwards, RLT buffer supplemented with β-mercaptoethanol, and ethanol were added according to the manufacturer’s instructions. After sample loading, column wash-steps were performed according to the manual. RNA concentration was measured with a NanoDrop spectrophotometer.
For transcriptomic analyses, RNA samples were processed and subjected to RNA-seq at Core Unit SysMed (University of Würzburg, Germany). Sequencing was run using a previously published protocol ([31]). Briefly, RNA quality was checked using a 2100 Bioanalyzer with the RNA 6000 Pico/ Nano kit (Agilent Technologies). RNA samples were DNase-treated using DNAse I kit (Thermo Fisher), followed by ribosomal RNA depletion using Lexogen’s RiboCop META rRNA Depletion Kit protocol according to manufacturer’s recommendation. Subsequently, cDNA libraries suitable for sequencing were prepared using CORALL Total RNA-Seq Library Prep protocol (Lexogen) according to manufacturer’s recommendation with 14–25 PCR cycles. Library quality was checked using a 2100 Bioanalyzer with the DNA High Sensitivity kit (Agilent Technologies). Sequencing of pooled libraries, spiked with 5% PhiX control library, was performed at 10 million reads/sample in single-end mode with 75 nt read length on the NextSeq 500 platform (Illumina) using High output sequencing kits. Demultiplexed FASTQ files were generated with bcl2fastq2 v2.20.0.422 (Illumina).
RNA-seq data analysis was performed similarly to our previous analysis of PNA activity in S. enterica ([30]). Briefly, adapters and low-quality bases (Phred quality score <10) of raw reads were trimmed using BBduk. Then the RNA-seq reads were mapped to the S. enterica serovar Typhimurium reference genome and the three plasmids pSLT SL1344, pCol1B9 SL1344, and pRSF1010 SL1344 ([37]) using BBMap (v38.18) and genomic features were assigned using the featureCounts command of the Subread (2.0.1) package ([38]). For the coverage plots in Figure 8, the bamCoverage (v3.3.2) method of the deepTools platform was applied ([39]).
Downstream RNA-seq analysis was performed using packages from the R/Bioconductor project. Raw read counts of all conditions were imported into edgeR (v3.34.1) ([40]) and analysed for differential expression. To filter low-count reads, features with less than 1.38 counts per million (CPM) in at least 5 libraries were ignored for further analysis. The cutoff of 1.38 CPM was set to 10/L, with L being the minimum library size across all samples in millions, as described in ([41]). Libraries were normalized using edgeR’s trimmed mean of M values (TMM) normalization ([40]). The glmFit function was applied to estimate quasi-likelihood dispersions and contrasts for differential expression analysis were tested using the glmQLTest function. […]

[2] = test system: AcpP::3xFLAG fusion protein; experiment: Western blot of intracellular AcpP protein levels; type: cell-based, Salmonella SL1344 AcpP::3xFLAG; design: key to AcpP protein reduction: -: Effect strength is represented by additional (+) signs.; Effect strength is represented by additional (+) signs.; ++: Effect strength is represented by additional (+) signs.; +++: Effect strength is represented by additional (+) signs; conditions: for AcpP protein reduction: summary grade, KFF-ASO treatment (Figure 9); for AcpP protein level (in words): 5 µM KFF-ASO conjugate, 30, 60, 120, 240 min for PNA and PMO, 120 min for all other ASOs
Experimental: Salmonella wild type (WT) and SL1344 AcpP::3xFLAG (chromosmal fusion of full length acpP to 3XFLAG-tag as described earlier([47]); internal strain number JVS-12398) were grown overnight in non-cation adjusted MHB. Bacterial cultures were diluted 1:100, grown to OD600 0.5 and subsequently diluted to approximately 10^6 cfu/ml in MHB. Then, 1.9 ml of each diluted bacterial solution was transferred into 5 ml low-binding tubes, pre-incubated at 37 °C for 10 min and treated with 100 µl of ASOs to adjust a final concentration of 5 µM. Water was added as negative control. The treatment with PNA and PMO was performed with aeration at 37 °C and 220 rpm shaking for 30, 60, 120 and 240 minutes while for all other ASOs, they were treated for 120 min only. Subsequently, the cells were collected by centrifugation at 4 °C and 16,000 ×g for 5 min, resuspended in 1× Protein Loading Buffer (62.6 mM Tris–HCl pH 6.8, 2 % SDS, 0.1 mg/ml bromophenol blue, 15.4 mg/ml DTT, 10 % glycerol) and denatured at 95 °C for 10 min.
For detection of AcpP::3xFLAG protein levels, samples were separated on an 12% SDS-PAA gel and transferred onto a Nitrocellulose membrane via semi dry western blotting. The membrane was probed with an α-FLAG antibody (Sigma; 1:1,000 in 1x TBS-T containing 3% BSA) at 4 °C overnight. After washing in 1x TBS-T, the membrane was incubated with a secondary HRP-conjugated anti-mouse antibody (Thermo Scientific; 1:5,000 in 1x TBS-T containing 1% BSA) at RT for 1 hour. Excessive antibody was removed by repeated wash steps in 1x TBS-T and the membrane was developed by Amersham™ ECL Select™ Western Blotting Detection Reagent Kit (Cytiva).

Substance	acpP depletion (RNA-seq) [1]	AcpP protein reduction [2]	acpP mRNA depletion (in words) [1]	AcpP protein level (in words) [2]
DNA-PTO: 10mer phosphorothioate-modified DNA antisense oligomer, sequence CTCATACTCT, targeting acpP (antisense dC*dT*dC*dA*dT*dA*dC*dT*dC*dT)	-	-		
LNA: 10mer 2'-4'-locked RNA antisense oligomer, sequence CTCATACTCT, targeting acpP (all LNA, backbone and methylation of C not given here)	-	-	slight effect	
PMO: 10mer phosphorodiamidate morpholino antisense oligomer, sequence CTCATACTCT, targeting acpP (all phosphorodiamidate morpholino (PMO))		+		gradual depletion of AcpP, albeit less pronounced than PNA
PNA: 10mer peptide nucleic acid antisense oligomer, sequence CTCATACTCT, targeting acpP (all peptide nucleic acid (PNA))		++	reduced the levels of acpP mRNA	depletion in AcpP levels can be observed from 60 min post treatment onwards
RNA-F: 10mer 2'-fluorinated RNA antisense oligomer, sequence CTCATACTCT, targeting acpP (all 2'-fluoro, backbone and T or U not given here)	-	-		
RNA-MOE: 10mer 2'-methoxyethylated RNA antisense oligomer, sequence CTCATACTCT, targeting acpP (all 2'-MOE, backbone and methylation of C not given here)	-	-		
RNA-OMe: 10mer 2'-methylated RNA antisense oligomer, sequence CTCATACTCT, targeting acpP (all 2'-O-methyl, backbone and T or U not given here)	-	-		
